Results reported in PubChem BioAssay (NCI).
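All cell lines were grown in 96-well plates and treated with compound for 48 hours. Abbreviation: GI50, concentration required for 50% inhibition of growth. TGI denotes the concentration required for complete inhibition of growth.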

Columns and labels:
Test in all cases: DTP human tumour cell line panel, 48 h
HCC-2998 colon = system: HCC-2998 colon
SK-MEL-2 melanoma = system: SK-MEL-2 melanoma
U251 CNS = system: U251 CNS
NCI-H460 lung = system: NCI-H460 lung
M14 melanoma = system: M14 melanoma
MDA-MB-231 breast = system: MDA-MB-231 breast
ACHN renal = system: ACHN renal
SK-MEL-28 melanoma = system: SK-MEL-28 melanoma
RPMI-8226 leukemia = system: RPMI-8226 leukemia
MCF7 breast = system: MCF7 breast
DU-145 prostate = system: DU-145 prostate
HS 578T breast = system: HS 578T breast
SR leukemia = system: SR leukemia
COLO 205 colon = system: COLO 205 colon
HL-60(TB) leukemia = system: HL-60(TB) leukemia
OVCAR-3 ovarian = system: OVCAR-3 ovarian
NCI/ADR-RES ovarian = system: NCI/ADR-RES ovarian
SF-268 CNS = system: SF-268 CNS
EKVX NSCLC = system: EKVX NSCLC
SW-620 colon = system: SW-620 colon
SK-MEL-5 melanoma = system: SK-MEL-5 melanoma
LOX IMVI melanoma = system: LOX IMVI melanoma
HCT-15 colon = system: HCT-15 colon
UACC-62 melanoma = system: UACC-62 melanoma
HOP-92 NSCLC = system: HOP-92 NSCLC
HCT-116 colon = system: HCT-116 colon
SF-295 CNS = system: SF-295 CNS
OVCAR-5 ovarian = system: OVCAR-5 ovarian
NCI-H522 lung = system: NCI-H522 lung
PC-3 prostate = system: PC-3 prostate
TK-10 renal = system: TK-10 renal
SF-539 CNS = system: SF-539 CNS
SN12C renal = system: SN12C renal
T-47D breast = system: T-47D breast
KM12 colon = system: KM12 colon
OVCAR-8 ovarian = system: OVCAR-8 ovarian
A549 NSCLC = system: A549 NSCLC
BT-549 breast = system: BT-549 breast
786-0 renal = system: 786-0 renal
UACC-257 melanoma = system: UACC-257 melanoma
OVCAR-4 ovarian = system: OVCAR-4 ovarian
SNB-19 CNS = system: SNB-19 CNS
K-562 leukemia = system: K-562 leukemia
MDA-MB-435 = system: MDA-MB-435
SK-OV-3 ovarian = system: SK-OV-3 ovarian
HOP-62 NSCLC = system: HOP-62 NSCLC
UO-31 renal = system: UO-31 renal
CAKI-1 renal = system: CAKI-1 renal

Oc1cccc(Nc2nc3ccccc3c3occc23)c1
GI50 (HCC-2998 colon): 2.67 µM
TGI (HCC-2998 colon): 11.3 µM
GI50 (SK-MEL-2 melanoma): 13.2 µM
TGI (SK-MEL-2 melanoma): 27.7 µM
GI50 (U251 CNS): 14 µM
TGI (U251 CNS): 27.2 µM
GI50 (NCI-H460 lung): 6.13 µM
TGI (NCI-H460 lung): 20.2 µM
GI50 (M14 melanoma): 14.9 µM
TGI (M14 melanoma): 28.2 µM
GI50 (MDA-MB-231 breast): 11.5 µM
TGI (MDA-MB-231 breast): 27 µM
GI50 (ACHN renal): 7.69 µM
TGI (ACHN renal): 21.4 µM
GI50 (SK-MEL-28 melanoma): 0.364 µM
TGI (SK-MEL-28 melanoma): 12.5 µM
GI50 (RPMI-8226 leukemia): 4.98 µM
TGI (RPMI-8226 leukemia): 18.2 µM
GI50 (MCF7 breast): 7.4 µM
TGI (MCF7 breast): 21 µM
GI50 (DU-145 prostate): 12.2 µM
TGI (DU-145 prostate): 24.6 µM
GI50 (HS 578T breast): 13.9 µM
TGI (HS 578T breast): 31.4 µM
GI50 (SR leukemia): 1.38 µM
TGI (SR leukemia): 18.8 µM
GI50 (COLO 205 colon): 13.8 µM
TGI (COLO 205 colon): 26.7 µM
GI50 (HL-60(TB) leukemia): 5.22 µM
TGI (HL-60(TB) leukemia): 61.7 µM
GI50 (OVCAR-3 ovarian): 2.09 µM
TGI (OVCAR-3 ovarian): 12.9 µM
GI50 (NCI/ADR-RES ovarian): 11.3 µM
TGI (NCI/ADR-RES ovarian): 23.4 µM
GI50 (SF-268 CNS): 4.39 µM
TGI (SF-268 CNS): 17.5 µM
GI50 (EKVX NSCLC): 14.6 µM
TGI (EKVX NSCLC): 28.5 µM
GI50 (SW-620 colon): 17.1 µM
TGI (SW-620 colon): 30.8 µM
GI50 (SK-MEL-5 melanoma): 14 µM
TGI (SK-MEL-5 melanoma): 27 µM
GI50 (LOX IMVI melanoma): 3.25 µM
TGI (LOX IMVI melanoma): 22.4 µM
GI50 (HCT-15 colon): 15 µM
TGI (HCT-15 colon): 33.8 µM
GI50 (UACC-62 melanoma): 11.1 µM
TGI (UACC-62 melanoma): 23.1 µM
GI50 (HOP-92 NSCLC): 9.07 µM
TGI (HOP-92 NSCLC): 21.3 µM
GI50 (HCT-116 colon): 17.3 µM
TGI (HCT-116 colon): 31.1 µM
GI50 (SF-295 CNS): 2.34 µM
TGI (SF-295 CNS): 11.7 µM
GI50 (OVCAR-5 ovarian): 12.7 µM
TGI (OVCAR-5 ovarian): 25.3 µM
GI50 (NCI-H522 lung): 14.5 µM
TGI (NCI-H522 lung): 28.8 µM
GI50 (PC-3 prostate): 8.59 µM
TGI (PC-3 prostate): 21 µM
GI50 (TK-10 renal): 5.21 µM
TGI (TK-10 renal): 12.2 µM
GI50 (SF-539 CNS): 16.1 µM
TGI (SF-539 CNS): 29.6 µM
GI50 (SN12C renal): 13.2 µM
TGI (SN12C renal): 25.9 µM
TGI (T-47D breast): 21.2 µM
GI50 (KM12 colon): 3.24 µM
TGI (KM12 colon): 13 µM
GI50 (OVCAR-8 ovarian): 13 µM
TGI (OVCAR-8 ovarian): 30.5 µM
GI50 (A549 NSCLC): 10.9 µM
TGI (A549 NSCLC): 22.8 µM
GI50 (BT-549 breast): 14.2 µM
TGI (BT-549 breast): 27.2 µM
GI50 (786-0 renal): 9.73 µM
TGI (786-0 renal): 21.4 µM
GI50 (UACC-257 melanoma): 15.9 µM
TGI (UACC-257 melanoma): 29.4 µM
GI50 (OVCAR-4 ovarian): 3.8 µM
TGI (OVCAR-4 ovarian): 22.1 µM
GI50 (SNB-19 CNS): 10.5 µM
TGI (SNB-19 CNS): 22.2 µM
GI50 (K-562 leukemia): 4.81 µM
TGI (K-562 leukemia): 55.8 µM
GI50 (MDA-MB-435): 3.04 µM
TGI (MDA-MB-435): 14.8 µM
GI50 (SK-OV-3 ovarian): 11.7 µM
TGI (SK-OV-3 ovarian): 23.9 µM
GI50 (HOP-62 NSCLC): 15.1 µM
TGI (HOP-62 NSCLC): 33.5 µM
GI50 (UO-31 renal): 10.5 µM
TGI (UO-31 renal): 22.2 µM
GI50 (CAKI-1 renal): 2.04 µM
TGI (CAKI-1 renal): 6.65 µM
